According to article PMC8580996, “2-Oxoglutarate derivatives can selectively enhance or inhibit the activity of human oxygenases” (Nature Communications, 2021):

Key:
AspH [1] = target: T1, AspH (Homo sapiens, UniProt Q12797); assay: Competition assay in a single reaction vessel, AspH-catalyzed hydroxylation (SPE-MS); format: biochemical
T1 construct: the tetratricopeptide repeat domain (His6-AspH315-758), was produced and purified as previously reported; made in house
T1 sequence (Q12797 315-758): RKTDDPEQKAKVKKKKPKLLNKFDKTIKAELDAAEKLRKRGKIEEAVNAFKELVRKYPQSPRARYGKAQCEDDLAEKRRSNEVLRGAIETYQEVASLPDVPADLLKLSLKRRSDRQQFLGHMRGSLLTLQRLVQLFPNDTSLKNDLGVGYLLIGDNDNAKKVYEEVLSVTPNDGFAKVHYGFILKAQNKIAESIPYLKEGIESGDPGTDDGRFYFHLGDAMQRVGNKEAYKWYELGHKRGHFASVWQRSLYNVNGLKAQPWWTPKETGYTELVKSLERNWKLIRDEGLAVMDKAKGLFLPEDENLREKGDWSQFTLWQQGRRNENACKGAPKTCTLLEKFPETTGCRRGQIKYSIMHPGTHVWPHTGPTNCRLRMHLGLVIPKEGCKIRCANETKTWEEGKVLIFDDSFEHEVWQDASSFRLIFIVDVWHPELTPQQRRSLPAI
Description: Mean of three independent runs (n = 3; mean ± SD). […] Cosubstrates: a 20 μM 2OG; b 20 μM 2OG; c 20 μM 1; d 20 μM 12; e 20 μM 12 and 100 μM 2OG; f 100 μM 14. Source data are provided as a Source Data file.
Mean of three independent runs (n = 3; mean ± SD). […] Source data are provided as a Source Data file.
Peptide turnover was monitored by SPE-MS using the same instrument configuration (with the exception that the peptides were eluted from the SPE cartridge with 0.1%v/v aqueous formic acid in 80/20 v/v acetonitrile/water) as described above.
FIH and AspH-catalyzed peptide hydroxylations were analyzed simultaneously using SPE-MS as described in the
Methods section; competition experiments were performed in the same reaction vessel using equimolar 2OG
oxygenase and substrate concentrations. […]
Source data are provided as a Source Data file.
FIH and AspH-catalyzed peptide hydroxylations were analyzed simultaneously using SPE-
MS as described in the Methods section; competition experiments were performed in the same reaction vessel
using equimolar 2OG oxygenase and substrate concentrations. […]
2OG, 100 μM 14. Source data are provided as a Source Data file.

FIH = FIH (Homo sapiens, UniProt Q9NWT6); assay: SPE-MS FIH turnover (cosubstrate) assay in the absence of 2OG; format: biochemical; settings: 330 μM 2OG or 2OG derivative, no 2OG, t = 15 min
Chain of FIH (Q9NWT6 whole entry): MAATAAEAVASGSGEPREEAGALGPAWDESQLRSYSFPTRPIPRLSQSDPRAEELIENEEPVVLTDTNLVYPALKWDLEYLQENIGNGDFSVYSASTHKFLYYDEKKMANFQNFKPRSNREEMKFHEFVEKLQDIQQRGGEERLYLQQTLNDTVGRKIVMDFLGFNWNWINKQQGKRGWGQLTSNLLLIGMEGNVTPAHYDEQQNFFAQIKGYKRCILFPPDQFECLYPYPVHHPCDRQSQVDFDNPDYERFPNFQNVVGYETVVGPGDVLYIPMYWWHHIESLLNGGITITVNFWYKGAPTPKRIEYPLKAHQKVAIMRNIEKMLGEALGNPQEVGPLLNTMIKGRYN
Description: The ability of 35 synthetic C3/C4-substituted 2OG derivatives, which were prepared via a reported procedure (Supplementary Fig. 1 and Supplementary Methods)[21], to sustain catalysis by purified recombinant FIH in the absence of 2OG was examined using an assay directly monitoring substrate depletion and product formation (i.e., a +16 Da mass shift) by solid-phase extraction (SPE) coupled to mass spectrometry (SPE-MS)[44],[45]. […] (i.e. CA1–20)[47], were used as FIH substrates to test for potential substrate-dependent differences in terms of cosubstrate analog selectivity.
Assay samples were aspirated under vacuum for 0.6 s and loaded onto a C4 SPE cartridge. After loading, the C4 SPE cartridge was washed with 0.1%v/v aqueous formic acid to remove non-volatile buffer salts (5.5 s, 1.5 mL/min). […] The mass spectrometer was operated using the MassHunter Workstation B.08.00 software (Agilent), the mass spectrometer parameters were: capillary voltage (4000 V), nozzle voltage (1000 V), fragmentor voltage (365 V), gas temperature (280 °C), gas flow (13 L/min), sheath gas temperature (350 °C), sheath gas flow (12 L/min). […] Data were exported into Microsoft Excel and used to calculate the % conversion of the hydroxylation reaction using the equation: % conversion = 100 × (integral product peptide)/(integral substrate peptide+integral product peptide). […] Z′-factors were calculated according to the cited literature using Microsoft Excel (Supplementary Fig. 26)[83].

AspH [2] = target: T1, AspH; design: method as in PMID 34163896; settings: hFX-CP101–119 substrate, 330 μM 2OG or 2OG derivative, t = 15 min; cited from earlier work

SMILES: O=C(O)CCC(=O)C(=O)O [2OG, 2-Oxoglutarate]
- substrate hydroxylation (% conversion) (AspH [1]; Fig 2b, 20 μM 2OG, AspH, 1.4395 min): 100
- substrate hydroxylation (% conversion) (AspH [1]; Fig 2b, 20 μM 2OG, AspH, 1.6805 min): 100
- substrate hydroxylation (% conversion) (AspH [1]; Fig 2b, 20 μM 2OG, AspH, 1.9205 min): 100
- substrate hydroxylation (% conversion) (AspH [1]; Fig 2b, 20 μM 2OG, AspH, 2.40217 min): 100
- substrate hydroxylation (% conversion) (AspH [1]; Fig 2b, 20 μM 2OG, AspH, 2.64367 min): 100
- substrate hydroxylation (% conversion) (AspH [1]; Fig 2b, 20 μM 2OG, AspH, 2.88417 min): 100
- substrate hydroxylation (% conversion) (AspH [1]; Fig 2b, 20 μM 2OG, AspH, 3.1255 min): 100
- substrate hydroxylation (% conversion) (AspH [1]; Fig 2b, 20 μM 2OG, AspH, 3.3665 min): 100
- substrate hydroxylation (% conversion) (AspH [1]; Fig 2b, 20 μM 2OG, AspH, 3.60917 min): 100
- AspH-catalyzed hFX-EGFD1_86–124-4Ser hydroxylation (AspH [1]; Fig 2b, 20 μM 2OG, within about 1 min): > 95%
- time to apparent completion of AspH substrate hydroxylation (AspH [1]; Fig 4a, 0.5 mM 2OG, absence of 13): ~ 1 min
- AspH conversion (AspH [1]; Supplementary Fig 8a, 20 μM 2OG, after 2 min): > 95%
- FIH activity, %-substrate conversion (FIH; CA1–20 substrate): > 95%
- FIH activity, %-substrate conversion (FIH; HIF-1α788–822 substrate): ~50%

SMILES: CC(CC(=O)O)C(=O)C(=O)O (stereo not shown) [compound 1, 3-methyl-2OG]
- AspH activity, %-substrate conversion (AspH [2]): >95%
- substrate hydroxylation (% conversion) (AspH [1]; Fig 2c, 20 μM 1, AspH, 3.5005 min): 100
- substrate hydroxylation (% conversion) (AspH [1]; Fig 2c, 20 μM 1, AspH, 4.20083 min): 100
- substrate hydroxylation (% conversion) (AspH [1]; Fig 2c, 20 μM 1, AspH, 5.60117 min): 100
- substrate hydroxylation (% conversion) (AspH [1]; Fig 2c, 20 μM 1, AspH, 6.29967 min): 100
- substrate hydroxylation (% conversion) (AspH [1]; Fig 2c, 20 μM 1, AspH, 7.00033 min): 100
- substrate hydroxylation (% conversion) (AspH [1]; Fig 2c, 20 μM 1, AspH, 7.7025 min): 100
- substrate hydroxylation (% conversion) (AspH [1]; Fig 2c, 20 μM 1, AspH, 8.40233 min): 100
- substrate hydroxylation (% conversion) (AspH [1]; Fig 2c, 20 μM 1, AspH, 9.10283 min): 100
- substrate hydroxylation (% conversion) (AspH [1]; Fig 2c, 20 μM 1, AspH, 9.806 min): 100
- substrate hydroxylation (% conversion) (AspH [1]; Fig 2c, 20 μM 1, AspH, […]): 100
- AspH-catalyzed hFX-EGFD1_86–124-4Ser hydroxylation (AspH [1]; Fig 2c, 20 μM 1, within ~2 min): > 95%
- FIH activity, %-substrate conversion (FIH; CA1–20 substrate): > 90%
- FIH activity, %-substrate conversion (FIH; HIF-1α788–822 substrate): ~55%

SMILES: CC(CC(=O)C(=O)O)C(=O)O (stereo not shown) [compound 12, 4-methyl-2OG]
- AspH activity, %-substrate conversion (AspH [2]): ~10%
- time to complete AspH-catalyzed hydroxylation of hFX-EGFD1_86–124-4Ser (AspH [1]; Fig 2e, 20 μM 12 and 100 μM 2OG): ~ 2 min
- substrate hydroxylation (% conversion) (AspH [1]; Fig 2e, 20 μM 12 and 100 μM 2OG, AspH, 1.918 min): 100
- substrate hydroxylation (% conversion) (AspH [1]; Fig 2e, 20 μM 12 and 100 μM 2OG, AspH, 2.15883 min): 100
- substrate hydroxylation (% conversion) (AspH [1]; Fig 2e, 20 μM 12 and 100 μM 2OG, AspH, 2.6405 min): 100
- substrate hydroxylation (% conversion) (AspH [1]; Fig 2e, 20 μM 12 and 100 μM 2OG, AspH, 2.88117 min): 100
- substrate hydroxylation (% conversion) (AspH [1]; Fig 2e, 20 μM 12 and 100 μM 2OG, AspH, 3.12267 min): 100
- substrate hydroxylation (% conversion) (AspH [1]; Fig 2e, 20 μM 12 and 100 μM 2OG, AspH, 3.36583 min): 100
- substrate hydroxylation (% conversion) (AspH [1]; Fig 2e, 20 μM 12 and 100 μM 2OG, AspH, 3.60733 min): 100
- substrate hydroxylation (% conversion) (AspH [1]; Fig 2e, 20 μM 12 and 100 μM 2OG, AspH, […]): 100
- AspH-catalyzed hFX-EGFD1_86–124-4Ser hydroxylation (AspH [1]; Fig 2d, 20 μM 12, after ~10 min): ~ 90%
- FIH activity, %-substrate conversion (FIH; CA1–20 substrate): ~80%
- FIH activity, %-substrate conversion (FIH; HIF-1α788–822 substrate): ~45%

SMILES: CCC(CC(=O)C(=O)O)C(=O)O (stereo not shown) [compound 14, 4-ethyl-2OG]
- AspH activity, %-substrate conversion (AspH [2]): <1%
- AspH-catalyzed hydroxylation of hFX-EGFD1_86–124-4Ser (AspH [1]; Fig 2f, 100 μM 14, absence of 2OG): not observed
- AspH catalysis (AspH [1]; Supplementary Fig 27, tenfold excess of 14 over 100 μM 2OG): entirely suppressed
- FIH activity, %-substrate conversion (FIH; CA1–20 substrate): ~75%
- FIH activity, %-substrate conversion (FIH; HIF-1α788–822 substrate): ~10%

SMILES: O=C(O)C(=O)CC(CCCc1ccccc1)C(=O)O (stereo not shown) [compound 18, 4-(3-phenylpropyl)-2OG]
- AspH activity, %-substrate conversion (AspH [2]): <1%
- FIH activity, %-substrate conversion (FIH; CA1–20 substrate): ^c<1% ^d<1%
- FIH activity, %-substrate conversion (FIH; HIF-1α788–822 substrate): ^c<1% ^d<1%

SMILES: O=C(O)C(=O)C1CCC(C(=O)O)C1 (stereo not shown) [compound 22, 3-(carboxycarbonyl)cyclopentane-1-carboxylic acid]
- AspH activity, %-substrate conversion (AspH [2]): ~15%
- FIH activity, %-substrate conversion (FIH; CA1–20 substrate): ~5%
- FIH activity, %-substrate conversion (FIH; HIF-1α788–822 substrate): ~2%
